One may read the inhibition as the share of the control response that was lost under treatment. Usually pKi stands for −log10 of the Ki, conventionally taken in molar units.

pKi: −log10 of the molar value. Active and inactive are the calls of the source. The rule behind the calls is not given here.

For experiment [1], the target named is T1, Lactoylglutathione lyase (Rattus norvegicus) (UniProt Q6P7Q4).
T1 sequence (whole entry): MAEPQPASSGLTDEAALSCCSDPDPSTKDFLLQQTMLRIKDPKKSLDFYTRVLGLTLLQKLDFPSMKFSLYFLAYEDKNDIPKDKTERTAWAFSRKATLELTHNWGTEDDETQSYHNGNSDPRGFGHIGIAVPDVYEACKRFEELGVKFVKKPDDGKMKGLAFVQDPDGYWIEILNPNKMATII
The experiment is described as follows: […] inhibitory activity against glyoxalase I in rat liver; no inhibition. It counts as functional.

In experiment [2] the target is Hydroxyacylglutathione hydrolase, mitochondrial (Rattus norvegicus) (UniProt O35952). Briefly: (§1) […] inhibitory activity against glyoxalase II in rat liver. The experiment is classed as functional. The conditions noted are these: concentration not given here.
The target of experiment [3] is Hydroxyacylglutathione hydrolase, mitochondrial (Rattus norvegicus, UniProt O35952). The experiment is described as §1.
In experiment [4] the target is Lactoylglutathione lyase (Mus musculus) (UniProt Q9CPU0). Briefly: […] inhibitory activity against glyoxalase I in mouse liver; no inhibition. It counts as functional.
Sequence of Lactoylglutathione lyase (Mus musculus) (Q9CPU0 2-184 limits assumed): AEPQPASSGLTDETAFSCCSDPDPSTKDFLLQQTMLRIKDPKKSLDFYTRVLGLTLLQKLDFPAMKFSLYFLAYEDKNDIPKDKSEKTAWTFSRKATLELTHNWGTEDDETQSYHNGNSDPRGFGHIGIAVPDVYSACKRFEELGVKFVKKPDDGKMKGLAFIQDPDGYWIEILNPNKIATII
Experiment [5] concerns the target T1, Lactoylglutathione lyase (Rattus norvegicus). The experiment is described as follows: In vivo inhibitory activity against glyoxalase I in rat liver. The conditions noted are these: concentration not given here. It counts as functional.
Experiment [6] concerns Lactoylglutathione lyase (Ovis aries). The experiment is described as follows: […] inhibitory activity against glyoxalase I in sheep liver; no inhibition.

Regarding `N[C@@H](CCC(=O)N[C@@H](CSC(=O)OCc1ccccc1)C(=O)NCC(=O)O)C(=O)O`, the outcome in experiment [1], in experiment [4] and in experiment [6] was inactive. The inhibition was over 50% in experiment [2] and under 10% in experiment [5]. This compound also had a pKi in experiment [3] of 4.19.

For the origin of these results see ChEMBL document CHEMBL1122424, “S-carbobenzoxyglutathione: a competitive inhibitor of mammalian glyoxalase II” (J Med Chem, 1983).
